Source: paper PMC1940322, “The Effect of PPARα, PPARδ, PPARγ, and PPARpan Agonists on Body Weight, Body Mass, and Serum Lipid Profiles in Diet-Induced Obese AKR/J Mice” (PPAR Research, 2007)
“And” between values parts separate entries of the source, which are not always exact repeats. Equal values may be shown once. Each block holds one compound with its values, some of them ahead of it.

Assays:
[1] = system: diet-induced obese (DIO) AKR/J mouse; assay: Food consumption in diet-induced obese AKR/J mice; type: in vivo; conditions: for effect on food consumption (in words): compared to vehicle-treated animals, doses and regimen as in methods
Method: (§1) In each experiment, BW of each animal was measured and recorded three times weekly throughout the treatment period. Body mass was obtained weekly on days 0, 7, 13, 20, and 27 of treatment. The effects of selective PPARα, δ, and γ agonists on food consumption were also assessed. Food consumption is expressed as total energy consumed (kcal) over a 24-period and as cumulative consumption over the course of the experiment.
The fat content of Research Diets D12331 chow results in pellets that crumbles making it difficult to quantify food consumption thus, Research Diets D12451 chow (4.7 kcal/g (45% kcal from fat, 35% kcal from carbohydrates and 20% kcal from protein)) was used in studies where food consumption was determined as these pellets are more solid. The animals were transitioned two weeks before compound dosing from Research Diets D12331 chow to Research Diets D12451 chow. Previous experiments (data not presented) have shown that animals fed this diet maintain the same BW and fat mass level as observed at the time of transition.
(§2) Experiment 1 was designed to study the effects of a selective PPARα agonist and PPARδ agonist as mono and combination therapy. 48 mice were sorted into 6 groups and blocked such that initial BW and body composition were not different between groups. […] Two additional groups of mice were dosed for the first 14 days with either a PPARα agonist or a PPARδ agonist alone. At day 15, the PPARδ agonist was added to the treatment regimen of animals dosed with PPARα, and the PPARα agonist was added to the dosing material of animals previously dosed with PPARδ alone. The sixth group was dosed with both the PPARα and PPARδ agonists for the entire 28-day period. BW and food consumption were assessed 3 times per week and body composition was measured weekly.
In Experiment 2, 32 mice were sorted into 4 groups (n = 8/group) and dosed with vehicle and a selective PPARγ agonist (GW7845, 3 mg/kg) for 28 days. Rimonabant (RIM, 10 or 30 mg/kg, q.d.), a CB1 receptor antagonist, was used as a positive control for weight loss. As in Experiment 1, BW and food consumption were determined 3 times per week and body composition was measured weekly.

[2] = system: diet-induced obese (DIO) AKR/J mouse; assay: Body weight, body composition (qMR) and liver weight in diet-induced obese AKR/J mice; type: in vivo; conditions: for BW day 28 / effect on FM (in words) / effect on LM (in words) / increase in liver weight / effect on BW (in words) / Fat mass day 28 / Lean mass day 28 / Liver weight: 28 days; for effect on FM (in words) / effect on LM (in words): doses as in methods; for increase in liver weight: PPARα agonist 1 mg/kg or PPARδ agonist 30 mg/kg alone; for BW day 0: baseline before treatment; for effect on BW (in words): oral, GW9578 1, GW0742 30, GW7845 3, RIM 10 and 30 mg/kg, PPARpan agonists; for Fat mass day 28 / Lean mass day 28: qMR; for Liver weight: terminal collection
Method: The effects of monotherapy with selective PPAR agonists, combination therapy with PPARα and PPARδ, and treatment with PPARpan agonists were evaluated in four experiments in diet-induced obese (DIO) AKR/J mouse. The AKR/J mouse is a polyoma-susceptible strain originally utilized to study accelerated tumor development. This strain becomes obese and hyperinsulemic when fed a high fat diet. Age-matched, male AKR/J mice were allowed ad libitum access to Research Diet D12331 (Research Diet, Brunswick, NJ) at the Jackson Laboratories (Bar Harbor, ME) beginning at 6 weeks of age. The diet has an energy density of 5.56 kcal/g (58% kcal from fat; 26% kcal from carbohydrates, and 16% kcal from protein). The animals were allowed to become obese, achieving BW >40 grams before shipping to GlaxoSmithKline laboratory animal facility at 13 weeks of age. The mice were housed 4 per cage in standard shoebox cages and were fed the high fat diet until they reached approximately 50 grams. Age-matched lean control animals obtained from Jackson Laboratories were fed a diet of normal chow (3.04 kcal/g energy density, 12% kcal from fat, LabDiet 5001, St. Louis, MO) and used for comparison.
At the beginning of each study, the animals were weighed and body composition obtained using an EchoMRI-100 quantitative magnetic resonance (qMR, EchoMRI, Houston, TX) whole body composition analyzer. […] 16 lean control mice on standard chow were used as reference. All mice were dosed orally with vehicle (0.5% methylcellulose and 0.1% Tween 80, 10 mL/kg) for six days prior to the beginning of dosing for acclimation to handling and treatment before drug treatment was initiated.
as §1
(§3) On the final day of each experiment, a terminal blood sample (800–1000 μL) was obtained via cardiac puncture under isoflurane anesthesia. Whole blood was placed in a Terumo Capiject blood collection tube (Terumo Medical Corp., Elkton, Md, USA), allowed to sit at room temperature for 20 minutes then centrifuged to obtain serum. Serum levels of glucose, triglycerides, glycerol, nonesterified fatty acids, total cholesterol, the high-density lipoprotein cholesterol, and β-hydroxybutyrate were determined in all mice using an Olympus AU640 clinical chemistry immuno-analyzer (Olympus America Inc., Melville, NY, USA). In addition, liver weights were obtained following the terminal blood sample on the final day of the study and samples were used to determine liver fatty acid oxidation activity.
as §2
In Experiment 2, 32 mice were sorted into 4 groups (n = 8/group) and dosed with vehicle and a selective PPARγ agonist (GW7845, 3 mg/kg) for 28 days. Rimonabant (RIM, 10 or 30 mg/kg, q.d.), a CB1 receptor antagonist, was used as a positive control for weight loss. […]

murine PPARα = biological target: T1, murine PPARα (Mus musculus, UniProt P23204); assay: PPAR-GAL4 transient transfection transactivation assay (SPAP reporter) in CV-1 cells, PPARα; type: cell-based; conditions: for EC50: CV-1 cells, GAL4 chimera, read-out: mPPARα, murine receptor activation EC50; for mPPARα %Max: maximal activation vs reference comparator
T1 construct: expressed in transfected cells; host or cells: CV-1 cells
T1 sequence (P23204 239-466 limits assumed): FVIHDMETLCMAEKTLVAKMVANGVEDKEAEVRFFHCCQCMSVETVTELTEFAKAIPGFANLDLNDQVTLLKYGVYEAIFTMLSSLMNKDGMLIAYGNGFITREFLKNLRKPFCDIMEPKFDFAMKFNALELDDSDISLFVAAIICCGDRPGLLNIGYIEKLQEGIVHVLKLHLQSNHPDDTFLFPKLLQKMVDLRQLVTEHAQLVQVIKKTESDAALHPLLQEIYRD
Method: The functional potency of selected ligands was evaluated using a transient transfection assay in CV-1 cells. The ligand binding domains for murine PPARα, PPARδ, and PPARγ were fused to the yeast transcription factor GAL4 DNA binding domain as a chimera. CV-1 cells were propagated and transiently transfected with expression vectors for the respective PPAR chimera as previously described. Test compounds were compared to reference comparators that give maximum responses in this assay. Compounds which produced an activation of at 70% or greater, compared to a positive control, were considered full agonists.

[3] = system: diet-induced obese (DIO) AKR/J mouse; assay: Serum clinical chemistry of terminal blood samples, DIO AKR/J mice; type: in vivo; conditions: for Cholesterol / Glucose / HDL-C / Insulin / NEFA / Triglyceride / bHBA: serum, end of treatment, 28 days; for effect on serum chemistry (in words): terminal serum after 28 days
Method: as §3

SMILES: Cc1cc(SCc2sc(-c3ccc(C(F)(F)F)c(F)c3)nc2C)ccc1OCC(=O)O [GW0742]
effect on food consumption (in words) [1]: transient stimulatory effect on food intake from days 12–17 | effect on food consumption (in words) ([1]; listed as PPARδ agonist): small but statistically significant increase in feeding | BW day 28 ([2]; 30 mg/kg oral): 50.2 ± 1.2 grams | effect on FM (in words) [2]: slight decrease in FM | effect on LM (in words) [2]: LM was unaffected | increase in liver weight [2]: ~1 gram | BW day 0 ([2]; group dosed 30 mg/kg oral): 51.6 ± 1.1 grams | effect on BW (in words) [2]: neither compound induced a sustained decrease in BW | Fat mass day 28 ([2]; 30 mg/kg oral): 18.4 ± 0.7 grams | Lean mass day 28 ([2]; 30 mg/kg oral): 29.7 ± 0.7 grams | Liver weight ([2]; 30 mg/kg oral): 3.2 ± 0.1 grams | EC50 (murine PPARα): 8.81 µM | mPPARα %Max (murine PPARα): 55% | Cholesterol ([3]; 30 mg/kg oral): 171.9 ± 2.9 mg/dL | Glucose ([3]; 30 mg/kg oral): 253.3 ± 8.9 mg/dL | HDL-C ([3]; 30 mg/kg oral): 118.4 ± 1.6 mg/dL | Insulin ([3]; 30 mg/kg oral): 2.2 ± 1.2 ng/mL | NEFA ([3]; 30 mg/kg oral): 0.9 ± 0.02 mEq/L | Triglyceride ([3]; 30 mg/kg oral): 174.9 ± 10.3 mg/dL | bHBA ([3]; 30 mg/kg oral): 3.8 ± 0.3 mg/dL | effect on serum chemistry (in words) [3]: significantly reduced circulating insulin (INS) levels

EC50 (murine PPARα): 10.8 µM | mPPARα %Max (murine PPARα): 30%
SMILES: COC(=O)c1ccccc1N[C@@H](Cc1ccc(OCCc2nc(-c3ccccc3)oc2C)cc1)C(=O)O [GW7845]
increase in food consumption ([1]; 3 mg/kg, after only one day): 46% | food consumption elevated ([1]; 3 mg/kg, over the remaining treatment period): more than 20% | BW day 28 ([2]; 3 mg/kg oral): 54.6 ± 1.7 grams | effect on FM (in words) [2]: significant increase in FM | BW day 0 ([2]; group dosed 3 mg/kg oral): 50.9 ± 1.2 grams | effect on BW (in words) [2]: steady and consistent increase in BW | Fat mass day 28 ([2]; 3 mg/kg oral): 23.5 ± 1.3 grams | Lean mass day 28 ([2]; 3 mg/kg oral): 28.7 ± 0.6 grams | Liver weight ([2]; 3 mg/kg oral): 2.0 ± 0.1 grams | Cholesterol ([3]; 3 mg/kg oral): 106.1 ± 4.2 mg/dL | Glucose ([3]; 3 mg/kg oral): 222.3 ± 9.4 mg/dL | HDL-C ([3]; 3 mg/kg oral): 65.0 ± 0.9 mg/dL | Insulin ([3]; 3 mg/kg oral): 2.1 ± 0.4 ng/mL | NEFA ([3]; 3 mg/kg oral): 0.6 ± 0.03 mEq/L | Triglyceride ([3]; 3 mg/kg oral): 112.3 ± 5.7 mg/dL | bHBA ([3]; 3 mg/kg oral): 1.5 ± 0.1 mg/dL | effect on serum chemistry (in words) [3]: significant reduction in circulating INS, TG, and NEFA levels

SMILES: CCCCCCCN(CCc1ccc(SC(C)(C)C(=O)O)cc1)C(=O)Nc1ccc(F)cc1F [GW9578]
effect on food consumption (in words) [1]: significant suppression of food intake | effect on food consumption (in words) ([1]; listed as PPARα agonist): reduced food consumption | BW day 28 ([2]; 1 mg/kg oral): 51.3 ± 1.6 grams | effect on FM (in words) [2]: slight decrease in FM | effect on LM (in words) [2]: LM was unaffected | increase in liver weight [2]: ~1 gram | BW day 0 ([2]; group dosed 1 mg/kg oral): 52.1 ± 1.1 grams | effect on BW (in words) [2]: neither compound induced a sustained decrease in BW | Fat mass day 28 ([2]; 1 mg/kg oral): 18.4 ± 0.9 grams | Lean mass day 28 ([2]; 1 mg/kg oral): 30.9 ± 0.8 grams | Liver weight ([2]; 1 mg/kg oral): 2.6 ± 0.1 grams | EC50 (murine PPARα): 0.008 µM and 0.0081 µM | mPPARα %Max (murine PPARα): 95% | selectivity for PPARα over PPARγ and PPARδ (murine PPARα; murine receptors): > 250 fold | Cholesterol ([3]; 1 mg/kg oral): 117.1 ± 4.1 mg/dL | Glucose ([3]; 1 mg/kg oral): 248.0 ± 16.6 mg/dL | HDL-C ([3]; 1 mg/kg oral): 86.6 ± 2.7 mg/dL | Insulin ([3]; 1 mg/kg oral): 3.1 ± 1.6 ng/mL | NEFA ([3]; 1 mg/kg oral): 0.9 ± 0.04 mEq/L | Triglyceride ([3]; 1 mg/kg oral): 168.3 ± 15.4 mg/dL | bHBA ([3]; 1 mg/kg oral): 3.2 ± 1.1 mg/dL | effect on serum chemistry (in words) [3]: significantly reduced circulating insulin (INS) levels
